Source: patent US4385060A, “Penicillins” (Beecham Group Limited, priority 1979, dated 1983)
“Also recorded” adds a separate entry of the source.

Legend:
[1] = Oral administration as syrup equivalent to 400 mg ticarcillin, phenyl vs p-tolyl ester (data of British Pat. No. 1,455,529); format: in vivo, man
From the text: The improved bioavailability can also be seen from the individual mean serum concentration figures in table 1. […] This can be seen by the comparison with the phenyl ester and for convenience the data from specification No. 1,455,529 is repeated in table 3 below:
(Administration as syrup containing equivalent

[2] = in words; cited from earlier work
[3] = Intact ester in blood and urine after oral administration to human volunteers; format: in vivo; settings: urine, read-out: ester present in urine
[4] = Oral absorption in fasting human volunteers (syrup): serum ticarcillin, AUC and urinary excretion by bio-assay, Experiments A-D; format: in vivo
Description: To obtain the results shown in table 1, the two esters of ticarcillin were each given to a panel of fasting human volunteers in a syrup formulation in an amount equivalent to provide either 200 or 400 mg (as stated in table 1) of the free ticarcillin after the expected in vivo hydrolysis. Periodic blood samples were taken from the volunteers and each assayed for ticarcillin content by a standard bio-assay technique. The urine excreted by each volunteer within the 6 hours following administration was also collected and assayed for the free ticarcillin. All three parameters (viz the urinary excretion level, the peak serum concentration achieved and the total area under the curve when the serum concentration is plotted against time) are indications of the minimum degree to which the penicillin ester has been absorbed after oral administration and then hydrolysed in vivo.

SMILES	oral absorption compared to the ortho ester ([1]; in words, p-tolyl vs α-ortho ester)	statistical significance of differences in mean serum concentrations ([1]; p-tolyl vs phenyl ester, table 3)	oral absorption in man [2]	dose excreted at 6 h [3] [%]	urinary recovery of ticarcillin compared to the phenyl ester ([4]; in words)	bioavailability of ticarcillin after oral administration compared to the phenyl ester ([4]; in words, AUC, listed as α-ortho-tolyl ester)	bioavailability as measured by AUC higher than for the phenyl ester ([4]; o-tolyl vs phenyl ester, oral, man, overall)
Cc1ccc(OC(=O)C(C(=O)N[C@@H]2C(=O)N3[C@@H]2SC(C)(C)[C@@H]3C(=O)O)c2ccsc2)cc1 (stereo partly drawn) [p-tolyl, α-para-tolyl mono-ester of α-carboxy-3-thienylmethyl penicillin]	much less well absorbed	not statistically significant	high degree of oral absorption in man				
CC1(C)S[C@@H]2[C@H](NC(=O)C(C(=O)Oc3ccccc3)c3ccsc3)C(=O)N2[C@H]1C(=O)O (stereo partly drawn) [phenyl, α-phenyl ester of α-carboxy-3-thienylmethyl penicillin, reference compound]				~1			
Cc1ccccc1OC(=O)C(C(=O)N[C@@H]1C(=O)N2[C@@H]1SC(C)(C)[C@@H]2C(=O)O)c1ccsc1 (stereo partly drawn) [o-tolyl, 6β-[2-(2'-methylphenoxycarbonyl)-2-thien-3'-ylacetamido]penicillanic acid]				~2	greater urinary recovery	considerably greater; also recorded: two- to three-fold greater	120-220%
